Reference: the supplement of paper PMC10307832

What was measured:
Test in all cases: relative viability (nuclei count vs DMSO), 5 days (fraction); higher = more cells survive
[1] = compound: CC1=CC(=NN1)NC2=CC(=NC(=N2)/C=C/C3=CC=CC=C3)N4CCN(CC4)C + C[C@]1(O)C[C@@H](c2nc(-c3ccc4ccc(-c5ccccc5)nc4c3)c3c(N)nccn32)C1 [Linsitinib] (partner 1 µM)
How it was run: (§1)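 After 5 days of treatment, lung cancer cells in 1536-well plates were fixed and stained in a single step (final 0.05% Triton X-100, 1% formaldehyde, 1 ug/ml Hoechst) and their nuclei counted on 4× images. Treatment had been applied by pin tool the day after seeding as one drug alone or as a fixed anchor-drug dose with five library-drug doses (not always all listed) in √10 steps. Relative viability is the nuclei count of treated wells divided by that of vehicle wells, and values are medians of duplicate plates.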

Obatoclax + Foretinib = compound: COC1=CC(c2cc3ccccc3[nH]2)=N/C1=C\c1[nH]c(C)cc1C [Obatoclax] + COc1cc2c(Oc3ccc(NC(=O)C4(C(=O)Nc5ccc(F)cc5)CC4)cc3F)ccnc2cc1OCCCN1CCOCC1 [Foretinib] (partner 0.25 µM)
How it was run: as §1

Obatoclax + Dasatinib = compound: COC1=CC(c2cc3ccccc3[nH]2)=N/C1=C\c1[nH]c(C)cc1C [Obatoclax] + Cc1nc(Nc2ncc(C(=O)Nc3c(C)cccc3Cl)s2)cc(N2CCN(CCO)CC2)n1 [Dasatinib] (partner 0.075 µM)
How it was run: as §1

Obatoclax + Phenformin = compound: COC1=CC(c2cc3ccccc3[nH]2)=N/C1=C\c1[nH]c(C)cc1C [Obatoclax] + N=C(N)NC(=N)NCCc1ccccc1 [Phenformin] (partner 250 µM)
How it was run: as §1

| Cell Line | relative viability ([1]; first compound 0.08 µM) | relative viability ([1]; first compound 0.8 µM) | relative viability ([1]; first compound 2.53 µM) | relative viability ([1]; first compound 8 µM) | relative viability (Obatoclax + Foretinib; first compound 0.01 µM) | relative viability (Obatoclax + Foretinib; first compound 0.03162 µM) | relative viability (Obatoclax + Foretinib; first compound 0.1 µM) | relative viability (Obatoclax + Foretinib; first compound 0.3162 µM) | relative viability (Obatoclax + Foretinib; first compound 1 µM) | relative viability (Obatoclax + Dasatinib; first compound 0.01 µM) | relative viability (Obatoclax + Dasatinib; first compound 0.03162 µM) | relative viability (Obatoclax + Dasatinib; first compound 0.1 µM) | relative viability (Obatoclax + Dasatinib; first compound 0.3162 µM) | relative viability (Obatoclax + Dasatinib; first compound 1 µM) | relative viability (Obatoclax + Phenformin; first compound 0.01 µM) | relative viability (Obatoclax + Phenformin; first compound 0.03162 µM) | relative viability (Obatoclax + Phenformin; first compound 0.1 µM) | relative viability (Obatoclax + Phenformin; first compound 0.3162 µM) | relative viability (Obatoclax + Phenformin; first compound 1 µM) | relative viability ([1]; first compound 0.253 µM) |
| --- | --- | --- | --- | --- | --- | --- | --- | --- | --- | --- | --- | --- | --- | --- | --- | --- | --- | --- | --- | --- |
| NCI-H1993 | 0.842 | 0.617 | 0.594 | 0.55 | 0.766 | 0.757 | 0.807 | 0.771 | 0.876 | 0.616 | 0.549 | 0.748 | 0.499 | 0.395 | 0.481 | 0.537 | 0.531 | 0.478 | 0.48 |  |
| NCI-H2009 | 1.08 | 1.21 | 1.05 | 0.155 | 1.24 | 1.25 | 1.23 | 0.477 | 0.333 | 0.297 | 0.367 | 0.252 | 0.208 | 0.197 | 0.472 | 0.507 | 0.385 | 0.27 | 0.194 | 1.16 |
| NCI-H2023 | 0.63 | 0.581 | 0.382 | 0.0796 | 0.944 | 0.841 | 0.804 | 0.804 | 0.316 | 0.518 | 0.548 | 0.53 | 0.412 | 0.194 | 0.387 | 0.438 | 0.425 | 0.293 | 0.152 | 0.725 |
| NCI-H2085 | 0.796 | 0.931 | 0.502 | 0.289 | 0.761 | 0.998 | 1.14 | 0.795 | 0.531 | 0.256 | 0.205 | 0.508 | 0.256 | 0.226 | 0.707 | 0.668 | 0.662 | 0.581 | 0.317 | 0.95 |
| NCI-H2087 | 0.982 | 0.965 | 0.723 | 0.203 | 1.21 | 1.05 | 1.1 | 0.324 | 0.465 | 0.837 | 0.747 | 0.723 | 0.361 | 0.135 | 0.423 | 0.372 | 0.513 | 0.344 | 0.193 | 0.909 |
| NCI-H2126 | 0.647 | 0.716 | 0.621 | 0.421 | 1.11 | 1.1 | 1.12 | 1.16 | 1.13 | 0.675 | 0.538 | 0.524 | 0.613 | 0.536 | 0.544 | 0.517 | 0.504 | 0.526 | 0.454 | 0.72 |
| NCI-H2228 | 0.776 | 0.506 | 0.154 | 0.0965 | 0.851 | 0.867 | 0.861 | 0.759 | 0.511 | 0.499 | 0.595 | 0.571 | 0.351 | 0.148 | 0.339 | 0.387 | 0.3 | 0.285 | 0.159 | 0.709 |
| NCI-H2347 | 0.844 | 0.99 | 0.93 | 0.614 | 1.09 | 0.831 | 0.918 |  | 1.04 | 0.305 | 0.281 |  | 0.308 | 0.324 | 0.496 | 0.366 |  | 0.506 | 0.517 | 1.05 |
